{"source": "patent US10004786B2", "about": "(Zealand Pharma A/S, priority 2009, dated 2018)", "key": {"GluR": {"target": "T1, GluR (Homo sapiens, UniProt P47871)", "T1 construct": "Primary human hepatocyts provided by Lonza Walkersvill, Inc; host or cells: primary human hepatocytes", "T1 sequence (P47871 26-477)": "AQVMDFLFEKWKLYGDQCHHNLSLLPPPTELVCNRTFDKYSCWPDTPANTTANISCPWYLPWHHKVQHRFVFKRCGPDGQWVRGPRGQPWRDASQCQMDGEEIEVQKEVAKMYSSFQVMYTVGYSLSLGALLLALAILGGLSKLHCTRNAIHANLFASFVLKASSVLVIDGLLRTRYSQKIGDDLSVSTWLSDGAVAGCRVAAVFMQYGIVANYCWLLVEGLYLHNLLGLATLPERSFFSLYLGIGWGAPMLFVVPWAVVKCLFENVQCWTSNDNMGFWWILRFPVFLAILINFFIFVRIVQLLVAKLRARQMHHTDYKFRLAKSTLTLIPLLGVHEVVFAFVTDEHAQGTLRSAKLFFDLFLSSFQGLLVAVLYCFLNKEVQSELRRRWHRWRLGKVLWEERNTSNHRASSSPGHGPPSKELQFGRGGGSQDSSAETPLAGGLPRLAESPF", "assay": "Hepatocyt cAMP formation (primary human hepatocyts)", "assay_type": "cell-based", "description": "Primary human hepatocyts provided by Lonza Walkersvill, Inc. were carefully washed in TB buffer and incubated at 37° C. with peptides dissolved in TB buffer supplemented with 100 μM IBMX and 0.1% casein for 15 minutes. Prior to addition to the cells, the peptide dilutions were pre-warmed to 37° C. The reaction was stopped by addition of 25 μl of ice cold 0.5 M HCl, and the cells were incubated on ice for 60 min. The cAMP content in the wells was determined by adding 25 μl of the acid extracts from the wells to 75 μl sodium acetate buffer, pH 6.2, in 96-well microtiter “FlashPlates” coated with scintillant and anti-cAMP antibodies.\nThe amount of cAMP produced by the cells was calculated by extrapolation to a cAMP standard curve.\nEC50 values were estimated by fitting the cAMP data to the below formula using Sigma Plot: […]"}, "human GLP-1R": {"target": "T2, human GLP-1R (Homo sapiens, UniProt P43220)", "T2 construct": "expressed in transfected cells", "T2 sequence (P43220 24-463)": "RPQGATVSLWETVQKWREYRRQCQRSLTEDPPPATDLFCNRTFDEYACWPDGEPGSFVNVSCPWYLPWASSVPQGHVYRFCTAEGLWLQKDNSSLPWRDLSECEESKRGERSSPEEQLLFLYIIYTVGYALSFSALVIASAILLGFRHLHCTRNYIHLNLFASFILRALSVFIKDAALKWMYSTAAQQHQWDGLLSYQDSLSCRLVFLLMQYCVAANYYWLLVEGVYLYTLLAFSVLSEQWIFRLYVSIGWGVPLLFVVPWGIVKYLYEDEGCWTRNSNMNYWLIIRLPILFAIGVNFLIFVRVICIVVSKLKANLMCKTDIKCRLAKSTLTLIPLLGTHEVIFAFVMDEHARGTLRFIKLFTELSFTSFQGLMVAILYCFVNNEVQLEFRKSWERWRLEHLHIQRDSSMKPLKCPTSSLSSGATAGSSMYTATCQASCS", "assay": "GLP-1 receptor efficacy assay (cAMP formation in HEK293 cells expressing human GLP-1R)", "assay_type": "cell-based", "conditions": "Table 1a, HEK293 cells expressing hGLP-1R", "description": "(§1) The 5′-end primers additionally encoded a near Kozak consensus sequence to ensure efficient translation.\n(§2) 48 hr after transfection cells were seeded for limited dilution cloning and selected with 1 mg/ml G418 in the culture medium.\n(§3) On the day of analysis, growth medium was removed and the cells washed once with 200 μl Tyrode buffer. […] The reaction was stopped by addition of 25 μl 0.5 M HCl and incubated on ice for 60 min. The cAMP content was estimated using the FlashPlate® cAMP kit from Perkin-Elmer.\n(§4) Efficacy of the GluGLP-1 agonists were estimated by exposing cells expressing hGlucagonR and hGLP-1R to the listed acylated compounds at increasing concentrations and measuring the formed cAMP as described in Methods."}, "[1]": {"assay": "Food intake in young lean and old obese C57BL/6J mice", "assay_type": "in vivo", "conditions": "s.c. at t=0 h and t=12 h, p<0.05 versus vehicle", "description": "C57BL/6J mice were on a high fat diet for 11 days and C57BL/6J mice were on a high fat diet for 52 weeks.\n3 days before study, the mice were transferred to individual cages and weighed. 4 days before study, they were acclimatized to handling and treatment by daily s.c. injections. On the day before the experiment food was removed at 20:00. […] Immediately after treatment (t=0), pre-weighed food were introduced to the mice and the cumulative food intake was measured by weighing the remaining food after t=1, 2, 4, 8, 12 and 24 hours. After weighing the food and the animals at t=24 h, the mice were sacrificed by cervical dislocation.\nImmediately after treatment (t=0), pre-weighed food were introduced to the mice and the cumulative food intake was measured by weighing the remaining food after t=1, 2, 4, 8, 12 and 24 hours."}, "[2]": {"assay": "Body weight gain in high fat fed C57BL/6J mice (10 days)", "assay_type": "in vivo", "conditions": "short term high fat-fed C57BL/6J mice", "description": "C57Bl/6J male mice, 6 weeks old, were acclimatized in their new environment for 4 weeks with free access to high fat diet (HFD) (D12492, Research Diet Inc., New Brunswick, USA) and water. The animals were injected s.c. with 100 μl vehicle for a period of three days to acclimatize the animals to handling and injections, prior to initiation of peptide treatment. […] Throughout the study, body weights were recorded daily and used to administer the body weight-corrected doses of peptide. All animals were sacrificed on the same day by cervical dislocation.\nC57Bl/6J male mice on high fat diet (HFD) were treated (b.i.d.; s.c.) (0.5 and 5 nmol/kg) or vehicle. Body weights were recorded daily and used to administer the body weight-corrected doses of peptide throughout the study. Data are shown as mean±SEM in FIG. 7."}, "human Glucagon-R": {"target": "T3, human Glucagon-R (Homo sapiens, UniProt P47871)", "T3 construct": "expressed in transfected cells", "T3 sequence (P47871 26-477)": "as the sequence (P47871 26-477) above", "assay": "Glucagon receptor efficacy assay (cAMP formation in HEK293 cells expressing human Glucagon-R)", "assay_type": "cell-based", "conditions": "Table 1a, HEK293 cells expressing hGlucagonR, read-out: EC50 (nM) GluR", "description": "as §1, §2, §3, §4"}}, "note": "Numbered stars: 1 amine (or outer) side, 2 acyl side, 3 side chain; on linkers, the order of the positions; unused ones are H or OH. Square brackets hold non-standard residues; d marks the D form. Side chains are listed from the residue outwards. Peptide text beside a SMILES is read from it. * marks the point of attachment. γGlu = O=C(O)[C@H](CCC(=O)[*:2])N[*:1]; Palmitoyl = CCCCCCCCCCCCCCCC(=O)*; Aib = CC(C)(N)C(=O)O", "data": [{"compound": "CCCCCCCCCCCCCCCC(=O)N[C@@H](CCC(=O)NCCCC[C@H](NC(=O)[C@H](C)NC(=O)[C@H](C)NC(=O)[C@H](CCC(N)=O)NC(=O)CNC(=O)[C@H](CCC(=O)O)NC(=O)[C@H](CC(C)C)NC(=O)[C@H](Cc1ccc(O)cc1)NC(=O)[C@H](CO)NC(=O)[C@H](CO)NC(=O)[C@@H](NC(=O)[C@H](CC(=O)O)NC(=O)[C@H](CO)NC(=O)[C@@H](NC(=O)[C@H](Cc1ccccc1)NC(=O)[C@@H](NC(=O)CNC(=O)[C@H](CCC(=O)O)NC(=O)[C@H](C)NC(=O)[C@@H](N)Cc1cnc[nH]1)[C@@H](C)O)[C@@H](C)O)C(C)C)C(=O)N[C@@H](CCC(=O)O)C(=O)N[C@@H](Cc1ccccc1)C(=O)N[C@H](C(=O)N[C@@H](C)C(=O)N[C@@H](Cc1c[nH]c2ccccc12)C(=O)N[C@@H](CC(C)C)C(=O)N[C@H](C(=O)N[C@@H](CCCNC(=N)N)C(=O)NCC(=O)N[C@@H](CCCNC(=N)N)C(=O)NCC(=O)O)C(C)C)[C@@H](C)CC)C(=O)O", "note": "[Liraglutide]", "values": [{"measurement": "GluR EC50 (nM) (1)", "setting": "GluR; experiment (1)", "result": "∞"}, {"measurement": "GluR EC50 (nM) (2)", "setting": "GluR; experiment (2)", "result": "∞"}, {"measurement": "GluR EC50 (nM) (log avg)", "setting": "GluR; log average of (1) and (2)", "result": "∞"}]}, {"compound": "CCCCCCCCCCCCCCCC(=O)NCCCC[C@H](NC(=O)[C@H](CO)NC(=O)[C@H](CC(=O)O)NC(=O)[C@H](CC(C)C)NC(=O)[C@H](Cc1ccc(O)cc1)NC(=O)[C@H](CCCCN)NC(=O)[C@H](CO)NC(=O)[C@H](Cc1ccc(O)cc1)NC(=O)[C@H](CC(=O)O)NC(=O)[C@H](CO)NC(=O)[C@@H](NC(=O)[C@H](Cc1ccccc1)NC(=O)[C@@H](NC(=O)CNC(=O)[C@H](CCC(N)=O)NC(=O)C(C)(C)NC(=O)[C@@H](N)Cc1c[nH]cn1)[C@@H](C)O)[C@@H](C)O)C(=O)N[C@@H](C)C(=O)N[C@@H](C)C(=O)N[C@@H](Cc1c[nH]cn1)C(=O)N[C@@H](CC(=O)O)C(=O)N[C@@H](Cc1ccccc1)C(=O)N[C@H](C(=O)N[C@@H](CCC(=O)O)C(=O)N[C@@H](Cc1c[nH]c2ccccc12)C(=O)N[C@@H](CC(C)C)C(=O)N[C@@H](CC(C)C)C(=O)N[C@@H](CO)C(=O)N[C@@H](C)C(N)=O)C(C)C", "note": "[Compound 23]", "values": [{"measurement": "EC50", "setting": "human GLP-1R", "result": 0.14, "unit": "nM"}]}, {"compound": "Exendin-4 [reference compound]", "values": [{"measurement": "food intake, old obese mice", "setting": "[1]; high fat diet for 52 weeks", "result": "reduced food intake in all time periods"}, {"measurement": "food intake, young lean mice", "setting": "[1]; high fat diet for 11 days", "result": "reduced food intake during the 0-2, 0-4, 0-8, 0-12 and 0-24 time periods"}, {"measurement": "body weight gain, low dose", "setting": "[2]; 0.5 nmol/kg b.i.d. s.c.", "result": "significantly decreased body weight gain at both doses"}, {"measurement": "body weight gain, high dose", "setting": "[2]; 5 nmol/kg b.i.d. s.c.", "result": "significantly decreased body weight gain at both doses"}]}, {"compound": "CCCCCCCCCCCCCCCC(=O)N[C@@H](CCC(=O)NCCCC[C@H](NC(=O)[C@H](CCC(=O)O)NC(=O)[C@H](CC(=O)O)NC(=O)[C@H](CC(C)C)NC(=O)[C@H](Cc1ccc(O)cc1)NC(=O)[C@H](CCCCN)NC(=O)[C@H](CO)NC(=O)[C@H](Cc1ccc(O)cc1)NC(=O)[C@H](CC(=O)O)NC(=O)[C@H](CO)NC(=O)[C@@H](NC(=O)[C@H](Cc1ccccc1)NC(=O)[C@@H](NC(=O)CNC(=O)[C@H](CCC(N)=O)NC(=O)C(C)(C)NC(=O)[C@@H](N)Cc1c[nH]cn1)[C@@H](C)O)[C@@H](C)O)C(=O)N[C@@H](C)C(=O)N[C@@H](C)C(=O)N[C@@H](Cc1c[nH]cn1)C(=O)N[C@@H](CC(=O)O)C(=O)N[C@@H](Cc1ccccc1)C(=O)N[C@H](C(=O)N[C@@H](CCC(=O)O)C(=O)N[C@@H](Cc1c[nH]c2ccccc12)C(=O)N[C@@H](CC(C)C)C(=O)N[C@@H](CC(C)C)C(=O)N[C@@H](CO)C(=O)N[C@@H](C)C(N)=O)C(C)C)C(=O)O", "note": "[Compound 40] (H-H[Aib]QGTFTSDYSKYLDEK([γGlu-Palmitoyl])AAHDFVEWLLSA-NH2)", "values": [{"measurement": "EC50", "setting": "human GLP-1R", "result": 0.2, "unit": "nM"}, {"measurement": "EC50", "setting": "human Glucagon-R", "result": 0.18, "unit": "nM"}]}]}
